The target in one data set is S1P3 receptor (Homo sapiens, UniProt Q99500). The data set can be described thus: cAMP accumulation assay at the S1P3 receptor (Lance cAMP 384 kit). It is filed as cell-based. The note with it: for EC50: N.D. = not defined because the potency and/or the efficacy were too low, read-out: pEC50 S1P3 (converted); for efficacy (α) S1P3: S1P = 1.00, N.D. = not defined because the potency and/or the efficacy were too low. The text has this:
(§1) A primary function of certain cell surface receptors is to activate second messenger systems upon binding of an agonist. The S1P1 receptor selectively binds to and activates Gi-proteins and activation of this receptor subtype thus results in the inhibition of cAMP production. The S1P2 receptor predominantly activates Gq-proteins finally resulting in increases in intracellular calcium. S1P3 receptor activation results in both, an inhibition of cAMP production and an increase in intracellular calcium, via the activation of Gi- and Gq-proteins
(§2) Accordingly, we performed measurements on cAMP accumulation (Lance cAMP 384 kit, Perkin Elmer, Zaventem, Belgium) and measurements on changes in intracellular calcium (for method see Jongsma et al., 2006) (8).
Background: Cyclic AMP is a second messenger, typically raised through Gs and lowered through Gi signalling.

The next data set concerns the target S1P1 receptor (Homo sapiens, UniProt P21453). In words: cAMP accumulation assay at the S1P1 receptor (Lance cAMP 384 kit). It is filed as cell-based. The note with it: for EC50: N.D. = not defined because the potency and/or the efficacy were too low, read-out: pEC50 S1P1 (converted); for efficacy (α) S1P1: S1P = 1.00, N.D. = not defined because the potency and/or the efficacy were too low.
Source text: as §1, §2

Molecules are shown by their SMILES.

S1P1 receptor, sequence (P21453 whole entry): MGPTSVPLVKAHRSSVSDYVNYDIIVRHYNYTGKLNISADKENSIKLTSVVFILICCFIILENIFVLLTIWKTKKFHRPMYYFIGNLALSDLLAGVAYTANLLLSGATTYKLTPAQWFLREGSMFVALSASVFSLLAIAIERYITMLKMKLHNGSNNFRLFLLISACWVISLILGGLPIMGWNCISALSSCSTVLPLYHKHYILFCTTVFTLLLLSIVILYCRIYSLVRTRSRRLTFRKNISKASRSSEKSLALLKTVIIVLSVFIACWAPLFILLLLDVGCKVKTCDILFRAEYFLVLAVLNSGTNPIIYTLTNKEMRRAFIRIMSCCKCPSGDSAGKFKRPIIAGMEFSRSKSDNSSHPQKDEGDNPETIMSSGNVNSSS
S1P3 receptor, sequence (Q99500 whole entry): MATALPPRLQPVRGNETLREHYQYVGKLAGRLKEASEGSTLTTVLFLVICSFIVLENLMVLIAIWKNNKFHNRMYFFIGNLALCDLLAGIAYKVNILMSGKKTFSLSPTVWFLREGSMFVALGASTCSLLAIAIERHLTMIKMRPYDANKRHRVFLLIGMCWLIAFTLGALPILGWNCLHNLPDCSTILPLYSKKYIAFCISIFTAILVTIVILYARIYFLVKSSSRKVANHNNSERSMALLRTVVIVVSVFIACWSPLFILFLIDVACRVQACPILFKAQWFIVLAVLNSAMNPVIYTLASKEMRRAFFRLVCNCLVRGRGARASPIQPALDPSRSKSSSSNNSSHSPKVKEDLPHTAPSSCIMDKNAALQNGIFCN

As usually defined, the melting point is the temperature, or range, at which the solid turns liquid. On to `Cc1sc(N)c(C(=O)c2ccc(Cl)cc2)c1C` [LUF5487, (2-Amino-4,5-dimethyl-3-thienyl)(4-chlorophenyl)methanone], for which the melting point lay in the range of 123 to 125 °C.
For `Nc1sc2c(c1C(=O)c1ccc(Cl)c(Cl)c1)CCCC2` [LUF5484, (2-Amino-4,5,6,7-tetrahydrobenzo[b]thiophen-3-yl)(3,4-dichlorophenyl)methanone], the melting point fell in the range of 152 to 154 °C. On S1P3 receptor, the EC50 is over 10000 nM and the “efficacy (α) S1P3” value is <0.5 (n = 2).
Take `Nc1sc2c(c1C(=O)c1cccc(C(F)(F)F)c1)CCCC2` [LUF5469, (2-Amino-4,5,6,7-tetrahydrobenzo[b]thiophen-3-yl)[3-(trifluoromethyl)phenyl]methanone]: the melting point was in the range of 122 to 123 °C. At S1P3 receptor, the EC50 was 1290 nM and the “efficacy (α) S1P3” value is on record as 1.07.
With `Nc1sc2c(c1C(=O)c1ccc(Cl)cc1)CCCC2` [LUF5480, (2-Amino-4,5,6,7-tetrahydrobenzo[b]thiophen-3-yl)(4-chlorophenyl)methanone], on S1P3 receptor, the EC50 was 6760 nM and the “efficacy (α) S1P3” value came out at 0.37.
As for `Cc1ccc(C(=O)c2c(N)sc3c2CCCC3)cc1` [LUF5527, (2-Amino-4,5,6,7-tetrahydrobenzo[b]thiophen-3-yl)(4-methylphenyl)methanone], the melting point was 155 to 156 °C. Moreover, on S1P3 receptor, the EC50 is 3090 nM and the “efficacy (α) S1P3” value was determined as 0.96.
For `Nc1sc2c(c1C(=O)c1ccc(Br)cc1)CCCC2` [LUF5490, (2-Amino-4,5,6,7-tetrahydrobenzo[b]thiophen-3-yl)(4-bromophenyl)methanone] the same measures were 152 to 153 °C, 1150 nM and 0.41.
`Nc1sc(CN2C(=O)c3ccccc3C2=O)cc1C(=O)c1cccc(C(F)(F)F)c1` [LUF5496, 2-({5-Amino-4-[3-(trifluoromethyl)benzoyl]-2-thienyl}methyl)-1,3-isoindolinedione] yielded a melting point of 199 to 200 °C. Moreover, at S1P3 receptor, the EC50 was over 10000 nM.
As for `CCc1c(C)sc(N)c1C(=O)c1ccccc1` [LUF5464, (2-Amino-4-ethyl-5-methyl-3-thienyl)(phenyl)methanone], the melting point was 129 to 131 °C. In addition, on S1P3 receptor, the EC50 is over 10000 nM and the “efficacy (α) S1P3” value is given as “+/−1 (n = 3)”.
`Nc1sc(-c2ccccc2)cc1C(=O)c1ccc(Cl)cc1` [LUF5488, (2-Amino-5-phenyl-3-thienyl)(4-chlorophenyl)methanone] had a melting point of 173 to 175 °C.
In turn, `COC(=O)c1ccc(C(=O)c2c(N)sc3c2CCCC3)cc1` [LUF5492, Methyl 4[(2-Amino-4,5,6,7-tetrahydrobenzo[b]thiophen-3-yl)-carbonyl]benzoate] came in with a melting point of 159 to 160 °C. At S1P3 receptor, the EC50 was 933 nM and the “efficacy (α) S1P3” value is 0.25.
For `Nc1sc2c(c1C(=O)c1ccc(I)cc1)CCCC2` [LUF5528, (2-Amino-4,5,6,7-tetrahydrobenzo[b]thiophen-3-yl)(4-iodophenyl)methanone] the same measures were 150 to 152 °C, over 10000 nM and <0.5 (n = 2).
In the case of `Nc1sc2c(c1C(=O)c1ccccc1)CCCC2` [LUF5465, (2-Amino-4,5,6,7-tetrahydrobenzo[b]thiophen-3-yl)(phenyl)methanone], at S1P3 receptor, the EC50 is over 10000 nM and the “efficacy (α) S1P3” value is over 0.5.
Take `Nc1sc2c(c1C(=O)c1ccc(C(=O)O)cc1)CCCC2` [LUF5493, 4-[(2-Amino-4,5,6,7-tetrahydrobenzo[b]thiophen-3-yl)-carbonyl]benzoic acid]: the melting point lay within 232 to 233 °C.
The molecule `Cc1sc(N)c(C(=O)c2cccc(Cl)c2)c1C` [LUF5471, (2-Amino-4,5-dimethyl-3-thienyl)(3-chlorophenyl)methanone] returned a melting point of 114 to 116 °C.
For `Nc1sc2c(c1C(=O)c1ccc(C(F)(F)F)cc1)CCCC2` [LUF5489, (2-Amino-4,5,6,7-tetrahydrobenzo[b]thiophen-3-yl)[4-(trifluoromethyl)phenyl]methanone], the melting point was in the range of 145 to 147 °C. Moreover, the EC50 on S1P3 receptor was over 10000 nM.
As for `Nc1sc2c(c1C(=O)c1ccc([N+](=O)[O-])cc1)CCCC2` [LUF5526, (2-Amino-4,5,6,7-tetrahydrobenzo[b]thiophen-3-yl)(4-nitrophenyl)methanone], the melting point was in the range of 202 to 204 °C.
In the case of `Nc1sc2c(c1C(=O)c1cccc(Cl)c1)CCCC2` [LUF5473, (2-Amino-4,5,6,7-tetrahydrobenzo[b]thiophen-3-yl)(3-chlorophenyl)methanone], the melting point fell in the range of 114 to 115 °C. At S1P1 receptor, the EC50 is 1000 nM and the “efficacy (α) S1P1” value is given as 0.40. Also, on S1P3 receptor, the EC50 was 1860 nM and the “efficacy (α) S1P3” value worked out at 1.07.
In turn, `CCc1c(C)sc(N)c1C(=O)c1cccc(Cl)c1` [LUF5472, (2-Amino-4-ethyl-5-methyl-3-thienyl)(3-chlorophenyl)methanone] displayed a melting point of 99 to 102 °C.
Turning to `CCCCCCCCCCCCC/C=C/[C@@H](O)[C@@H](N)COP(=O)(O)O` [S1P, sphingosine-1-phosphate], at S1P1 receptor, the EC50 was 0.138 nM and the “efficacy (α) S1P1” value came out at 1.00. Also, at S1P3 receptor, the EC50 was 0.347 nM and the “efficacy (α) S1P3” value worked out at 1.00.
Molecule `Nc1sc2c(c1C(=O)c1cccc(I)c1)CCCC2` [LUF5533, (2-Amino-4,5,6,7-tetrahydrobenzo[b]thiophen-3-yl)(3-iodophenyl)methanone] yielded a melting point of 160 to 162 °C. Also, on S1P1 receptor, the EC50 is 1380 nM and the “efficacy (α) S1P1” value was determined as 0.46. At S1P3 receptor, the EC50 is 1260 nM and the “efficacy (α) S1P3” value was 0.94.
Regarding `CCc1c(C)sc(N)c1C(=O)c1cccc(C(F)(F)F)c1` [LUF5468, (2-Amino-4-ethyl-5-methyl-3-thienyl)[3-(trifluoromethyl)phenyl]methanone], the melting point is 100 to 101 °C.
As for `CCc1c(C)sc(N)c1C(=O)c1ccc(Cl)cc1` [LUF5482, (2-Amino-4-ethyl-5-methyl-3-thienyl)(4-chlorophenyl)methanone], the melting point lay in the range of 108 to 110 °C.
As to `Nc1sc2c(c1C(=O)c1ccccc1Cl)CCCC2` [LUF5532, (2-Amino-4,5,6,7-tetrahydrobenzo[b]thiophen-3-yl)(2-chlorophenyl)methanone], the melting point was 145 to 147 °C. Further, on S1P1 receptor, the EC50 was 4170 nM and the “efficacy (α) S1P1” value came to 0.63. Also, on S1P3 receptor, the EC50 is 4170 nM and the “efficacy (α) S1P3” value is 0.71.

Source of the values: US20100317709A1, “SPHINGOSINE-1-PHOSPHATE (S1P) RECEPTOR COMPOUNDS” (UNIVERSITEIT LEIDEN, priority 2007, published 2010).
